ChEMBL document CHEMBL5726728, “T-type calcium channel modulator and uses thereof” (2019)

Experiments:
Cannabinoid receptor 1 = Cannabinoid receptor 1 (Rattus norvegicus, UniProt P20272); experiment: (§1) As used herein, the term T-type calcium channel blocker refers to a compound that can modulate, in particular inhibit or reduce activation of T-type calcium channels. […] The term about refers to ±20%, typically ±10%, and often ±5% of the numeric value.
Cannabinoid receptor 2 = Cannabinoid receptor 2 (Homo sapiens, UniProt P34972); experiment: as §1
Chain of Cannabinoid receptor 2 (P34972 whole entry): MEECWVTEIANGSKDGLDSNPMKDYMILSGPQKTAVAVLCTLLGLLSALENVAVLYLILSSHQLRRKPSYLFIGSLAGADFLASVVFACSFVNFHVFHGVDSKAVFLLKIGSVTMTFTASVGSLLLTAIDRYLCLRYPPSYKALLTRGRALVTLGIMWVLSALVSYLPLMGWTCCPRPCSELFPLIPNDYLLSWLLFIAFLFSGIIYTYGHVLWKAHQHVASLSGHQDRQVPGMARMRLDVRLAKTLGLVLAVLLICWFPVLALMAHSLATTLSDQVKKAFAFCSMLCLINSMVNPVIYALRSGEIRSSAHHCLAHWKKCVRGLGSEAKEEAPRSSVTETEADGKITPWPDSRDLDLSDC

Chain of Cannabinoid receptor 1 (P20272 whole entry): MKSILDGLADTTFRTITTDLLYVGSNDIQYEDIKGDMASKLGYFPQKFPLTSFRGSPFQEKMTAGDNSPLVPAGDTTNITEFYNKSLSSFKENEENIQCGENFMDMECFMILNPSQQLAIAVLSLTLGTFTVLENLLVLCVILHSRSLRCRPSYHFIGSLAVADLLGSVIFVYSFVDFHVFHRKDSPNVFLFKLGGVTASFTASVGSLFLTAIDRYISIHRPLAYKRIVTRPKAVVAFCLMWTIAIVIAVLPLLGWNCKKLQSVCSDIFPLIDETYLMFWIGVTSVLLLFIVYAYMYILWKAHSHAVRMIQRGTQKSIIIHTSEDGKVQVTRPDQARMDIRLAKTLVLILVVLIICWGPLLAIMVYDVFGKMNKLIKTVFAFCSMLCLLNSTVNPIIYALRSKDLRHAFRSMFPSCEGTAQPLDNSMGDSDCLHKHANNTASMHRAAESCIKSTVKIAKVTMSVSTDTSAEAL

Work on `CCCCCn1c2ccccc2c2cc(C(=O)N3CCN(CC(=O)NC(C)(C)C)CC3)ccc21` yielded a Ki (Cannabinoid receptor 1) of 15 nM and a Ki (Cannabinoid receptor 2) of 1970 nM.
